Key:
Type in all cases: cell-based, human
GBM12 and GBM22 cells = assay: Single cell migration assay on nanoplates
Text: For time-lapse analysis of individual cell movement, nano-ridge constructed of transparent poly(urethane acrylate) (PUA), and fabricated using UV-assisted capillary lithography as described by Kim et al. were used (Kim, D et al. (2009) Mechanosensitivity of fibroblast cell shape and movement to anisotropic substratum topography gradients, Biomaterials 30: 5433-5444; Kim, et al. (2009) Guided Cell Migration on Microtextured Substrates with Variable Local Density and Anisotropy, Adv Funct Mater 19: 1579-1586; Garzon-Muvdi, et al. (2012) Regulation of brain tumor dispersal by NKCC1 through a novel role in focal adhesion regulation, PLoS Biol 10: e1001320). The 24 well NanoSurface plate was purchased from Curi Bio (Seattle, Wash.). Prior to cell seeding, nanoridges surfaces were coated with laminin (3 μg/cm^2, Sigma-Aldrich). Cells were plated at low density (1×10^4 cells/ml) and incubated at 37° C. overnight. The following day, cells were washed with PBS and cultured in DMEM supplemented with 1% FBS and were ready for time-lapse imaging. To measure cell proliferation, 6 hours after plating Histone2B-GFP (C10594, ThermoFisher) was added for nuclear staining overnight. The next day cells were incubated with a mixture of BioTracker® NTP-Transporter Molecule (SCT064, Sigma Aldrich) and Cy3-dUTP (50-190-5459, ThermoFisher) for 10 minutes and then replaced with 1% FBS media containing HB2B2-GFP. For time-lapse imaging, the plate was mounted onto the stage of Andor spinning disk confocal microscope equipped with temperature and CO2 controlling environmental chamber. […] Both fluorescent and bright-field images were taken every 30 minutes for 24 hours using a 10× objective. ImageJ manual track Plugin was used to track the movement of cells frame by frame.
Analysis of individual cellular movement was performed as described elsewhere herein. EGF (50 ng/ml) or vehicle was added 6 hours after the start of time-lapse imaging (n=63 cells). Vehicle was used as a negative control (n=67 cells). Single cell migration speed was calculated using Manual tracking Plugin in ImageJ. […] Cell migration velocity was calculated over a period of 6 hours. […] Analysis of individual cell proliferation was performed as described elsewhere herein. EGF (50 ng/ml) was added 6 hours after the start of time-lapse imaging (n=56). Vehicle was used as a negative control (n=64). Representative static time-lapse Cy3 and H2B-GFP staining images of the same cell before and after addition of EGF are shown in FIG. 25E. […] Each point represents the percentage of Ki positive cells in total 100 cells. […] Cell migration velocity was calculated over a period of 6 hours (n=81). Vehicle was used as a negative control (n=89). […] Scale bar=[…]. Data are represented as media ±5-95% interquartile range (FIG. 25B and FIG. 25K) or mean±SEM (FIG. 25D and FIG. 25M). ***P<0.001, […], n.s. not significant, Mann-Whitney test was used for pair comparison. Two-way ANOVA test was used to analyze Cy3 intensity data in FIG. 25D and FIG. 25M. The results are representative of two independently repeated experiments.
Single-cell migration analysis was performed as described for FIG. 25A above (Vehicle group, n=57, EGF group, n=74). […] Cell migration velocity was calculated over a period of 6 hours. Vehicle was used as a negative control (n=57). […] Analysis of individual cell proliferation was performed as described elsewhere herein. […] Cell migration velocity was calculated over a period of 6 hours. […]

EGR1 = EGR1 levels (qPCR, Western blot) and EGR1 promoter luciferase assay
Experimental: Whole protein extracts from cells or tumor tissues were analyzed by western blot as previously described (Altieri et al. (2015) Surg. Technol. Int 27: 297-302). Mayo PDX cells were serum starved overnight. Following treatment for specific time, cells were harvested and lysed. The human glioblastoma tissues were ground in liquid nitrogen and then were lysed. EGFR (06-847) antibody was from Millipore. DOCK7 was from Proteintech (Rosemont, Ill.). pEGFR (2236), STAT3 (12640), pSTAT3 (9145), cdc42(4376), and RhoA (4695) antibodies were from Cell Signaling Technology (Danvers, Mass.). TGFα antibody was from R&D system. BIN3 (sc-514396) and (3-Actin (sc-47778) were from Santa Cruz Biotechnology (Dallas, Tex.).
Total RNA from cells was extracted by TRIzol Reagent (Ambion). First-strand cDNA and PCR was performed as described previously (Altieri et al. (2015) Surg. Technol. Int. 27: 297-302). The expression of each gene was normalized to GAPDH as a reference. The following primers were used. BIN3, 5′-[…]-3′ (SEQ ID NO:5) and 5′-[…]-3′ (SEQ ID NO:6); GAPDH, 5′-[…]-3′ (SEQ ID NO:7) and 5′-TGATG-[…]-3′ (SEQ ID NO:8).
Cells were plated in 48 well dishes to 70%-80% confluence followed by transfection with EGR1 promoter plasmid or empty plasmid using lipofectamine 2000. […] Firefly luciferase activity was measured in a luminometer and normalized on the basis of Renilla luciferase activity.

GBM12, GBM6, and GBM22 = assay: Bromodeoxyuridine cell proliferation assay; details: 48 hours
Experimental: Cell proliferation was assessed using the bromodeoxyuridine (BrdU) cell proliferation enzyme-linked immunosorbent assay kit (Abcam, Cambridge, United Kingdom) according to the manufacturer's instructions.

CDC42 = assay: Cdc42 pull down assay (CDC42-GTP); details: 24 hours, GBM12 and GBM6
Experimental: The amount of GTP-bound RhoA and Cdc42 were measured using RhoA and Cdc42 pull down assay kit (Cell Signaling) according to the protocol provided by the manufacturer. Briefly, cell lysates were incubated with either glutathione S-transferase (GST)-Rhotekin-RBD or GST-PAK-PBD beads 4° C. for 1 hour to pull down GTP-bound RhoA or Cdc42. Beads were washed four times in washing buffer and re-suspended in lysis buffer. RhoA-GTP and Cdc42-GTP were detected by Western blot using RhoA and Cdc42 antibodies.

## C[C@@H]1CCN(C(=O)CC#N)C[C@@H]1N(C)c1ncnc2[nH]ccc12 [tofacitinib]
GBM12 and GBM22 cells; tofacitinib 1 μM, GBM12
  single cell migration: decreased invasion
  single cell proliferation (Cy3): increased proliferation
GBM12 and GBM22 cells; tofacitinib 1 μM, second PDX line (GBM22)
  single cell migration and proliferation: confirmed
EGR1; tofacitinib, Western blot 4 hours, luciferase 2 and 24 hours
  EGR1 levels and activity: induces EGR1 levels and activity
GBM12, GBM6, and GBM22; tofacitinib 1 μM
  proliferation (BrdU incorporation): induced proliferation

## EGF: Recombinant human EGF (AF-100) from Peprotech; EGFR ligand
GBM12 and GBM22 cells; EGF 50 ng/ml, GBM12
  single cell migration: significant slowing of migration
  single cell proliferation (Cy3 linked marker, Ki-67): induces proliferation
EGR1; EGF 50 ng/ml, GBM12 and GBM6
  EGR1 mRNA, protein and transcriptional activity: upregulation of EGR1 was confirmed
CDC42; EGF 50 ng/ml
  CDC42 activity: decreases the activity
GBM12, GBM6, and GBM22; EGF 50 ng/ml
  proliferation (BrdU incorporation): induces proliferation

## HGF: the ligand for Met
CDC42; HGF 20 ng/ml
  CDC42 activity: increase of CDC42 activity was not detected

From US20230075368A1, “IDENTIFICATION OF AN EGFR-BIN3 PATHWAY THAT ACTIVELY SUPPRESSES INVASION AND REDUCES TUMOR SIZE IN GLIOBLASTOMA” (The United States Govemment as represented by the …, priority 2020, published 2023)
